Several values for one entry are separate records, joined by “and”; a condition that tells them apart may be missing. Equal values may be shown once. Entries after “also recorded” stand apart in the source; their conditions may differ.
Experiments:
kidney = assay: Renal histopathology of rats treated with T1, T2, T3; type: in vivo, rat
Description: Each group consisted of 6 male and 6 female rats. The additional groups consisted of 6 males and 6 female rats treated with control compound for a single day and for five days, as described in Table 24.
T2 “no observed effect level” (NOEL, i.e., the maximal dose at which no toxic effect is visible) is 15 mg/kg.
At autopsy, both kidneys of each animal were removed and each kidney was cross sectioned. Half of each kidney was sent to RNA extraction and analysis.

[1] = tested on: kidney tissues of treated or untreated rats; assay: Real-time qRT-PCR of signature amplicons, validation stage, labeled and un-labeled samples (Table 23); settings: for H31883_DB71_seg13 normalized qRT-PCR result / MUSCYCG1R_DB81_seg19-20 normalized qRT-PCR result / W41270_DB81_seg11 normalized qRT-PCR result: un-labeled sample, one line per animal; for AI045075_DB71_seg6 normalized qRT-PCR expression (Interferon stimulated exonuclease 20 (ISG20) transcript) / H31883_DB71_seg13 normalized qRT-PCR expression (Cyclin-G1 (CCNG1) transcript) / MUSCYCG1R_DB81_seg19-20 normalized qRT-PCR expression / W41270_DB81_seg11 normalized qRT-PCR expression (tumor necrosis factor receptor superfamily, member 12a transcript) / W64472_DB81_seg2 normalized qRT-PCR expression (Interferon stimulated exonuclease 20 (ISG20) transcript) / W83813_DB81_seg27 normalized qRT-PCR expression: un-labeled samples, kidney of individual male/female rats
Outline: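 Each of four signature genes measured as wild-type and alternative-splice amplicons by qRT-PCR in treated or untreated rat kidney. Normalization was two-step: housekeeping-gene factor, then inter-plate correction from shared samples on a shuffled control plate; final values rescaled for display.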

rat kidney samples = assay: Random-Forest classifiers applied to un-labeled samples of T1, T2, T3 and control (Table 30); settings: for Average 'Toxic' (%): average of the two classifiers
Description: To validate the optimal signature for classification of renal toxicity of a compound after five days of application a test of the signatory polynucleotide/gene expression in rat kidney samples consisting of tissues from rats exposed to three drug compounds and a single control group was carried out (Teva Pharmaceutical Industries, IL).
The two optimal classifiers (signatures described in Tables 26 and 27) were applied to the qRT-PCR reads of the un-labeled samples and their calls was used to assign a level of toxicity to each group and, eventually, each compound.
The classifiers described in Tables 26 and 27, were used for testing the un-labeled samples. Both classifiers were applied to the measurements of each sample, used the 30% bound from above, and the number of samples pass that bound in each group were summarized.

[2] = Ds1, Day1, oral gavage, female rat kidney
[3] = Ds1, Day1, oral gavage, male rat kidney
[4] = Ds1, Day5, oral gavage, female rat kidney
[5] = Ds1, Day5, oral gavage, male rat kidney
[6] = Ds2, Day1, oral gavage, female rat kidney
[7] = Ds2, Day1, oral gavage, male rat kidney
[8] = Ds2, Day5, oral gavage, female rat kidney
[9] = Ds2, Day5, oral gavage, male rat kidney

CN(C)c1cccc2c1CCC2Nc1cc(=O)[nH]c(=O)[nH]1.Cl (stereo not shown) [T2]
Kidney histopathology findings (kidney; 50 mg/kg, after 7 days): direct cortical tubular toxicity; also recorded: multifocal, consisting of tubular basophilia, indicating regeneration following necrosis; also recorded: basophilic tubules in the cortex, indicating post-necrotic regeneration
Time after which visible pathological damage was seen (kidney; rats): 7 days
no observed effect level (NOEL) (kidney; rats): 15 mg/kg
Renal damage (kidney; rats, dose and duration as in the value): renal damage after 7 days of treatment at the 50 mg/kg dose
H31883_DB71_seg13 normalized qRT-PCR result [1, 2]: 0.183 and 0.213 and 0.29 and 0.387
MUSCYCG1R_DB81_seg19-20 normalized qRT-PCR result [1, 2]: 0.54 and 0.419 and 0.836 and 0.49
W41270_DB81_seg11 normalized qRT-PCR result [1, 2]: 0.492 and 0.468 and 1.072 and 0.969
H31883_DB71_seg13 normalized qRT-PCR result [1, 3]: 0.955 and 0.798 and 0.931 and 1.182
MUSCYCG1R_DB81_seg19-20 normalized qRT-PCR result [1, 3]: 0.98 and 0.709 and 1.059 and 1.253
W41270_DB81_seg11 normalized qRT-PCR result [1, 3]: 0.801 and 0.791 and 1.076 and 1.477
H31883_DB71_seg13 normalized qRT-PCR result [1, 4]: 0.865 and 0.922 and 0.961 and 0.824 and 1.303
MUSCYCG1R_DB81_seg19-20 normalized qRT-PCR result [1, 4]: 0.771 and 1.02 and 1.923 and 1.232 and 0.94
W41270_DB81_seg11 normalized qRT-PCR result [1, 4]: 0.464 and 0.532 and 0.616 and 0.572 and 0.773
H31883_DB71_seg13 normalized qRT-PCR result [1, 5]: 0.11 and 0.209 and 0.27 and 0.299
MUSCYCG1R_DB81_seg19-20 normalized qRT-PCR result [1, 5]: 1.566 and 1.449 and 1.516 and 1.237
W41270_DB81_seg11 normalized qRT-PCR result [1, 5]: 1.445 and 1.42 and 1.258 and 1.447
H31883_DB71_seg13 normalized qRT-PCR result [1, 6]: 0.289 and 0.365 and 0.32 and 0.444 and 0.254
MUSCYCG1R_DB81_seg19-20 normalized qRT-PCR result [1, 6]: 2.008 and 0.857 and 3.044 and 2.152 and 0.71
W41270_DB81_seg11 normalized qRT-PCR result [1, 6]: 1.104 and 0.741 and 1.73 and 1.211 and 0.666
H31883_DB71_seg13 normalized qRT-PCR result [1, 7]: 0.773 and 0.595 and 0.741 and 0.777 and 0.725 and 0.614
MUSCYCG1R_DB81_seg19-20 normalized qRT-PCR result [1, 7]: 1.006 and 0.729 and 0.541 and 1.015 and 0.588 and 0.471
W41270_DB81_seg11 normalized qRT-PCR result [1, 7]: 1.462 and 0.692 and 0.656 and 1.23 and 0.866 and 0.837
H31883_DB71_seg13 normalized qRT-PCR result [1, 8]: 0.269 and 0.354
MUSCYCG1R_DB81_seg19-20 normalized qRT-PCR result [1, 8]: 0.799 and 3.003
W41270_DB81_seg11 normalized qRT-PCR result [1, 8]: 0.554 and 1.029
H31883_DB71_seg13 normalized qRT-PCR result [1, 9]: 0.615 and 1.022 and 0.962 and 0.626
MUSCYCG1R_DB81_seg19-20 normalized qRT-PCR result [1, 9]: 1.338 and 0.831 and 0.83 and 0.878
W41270_DB81_seg11 normalized qRT-PCR result [1, 9]: 0.899 and 1.446 and 0.623 and 1.049
AI045075_DB71_seg6 normalized qRT-PCR expression (Interferon stimulated exonuclease 20 (ISG20) transcript) ([1]; dose Ds1, Day1, oral gavage): 1.308 and 0.744 and 1.159
H31883_DB71_seg13 normalized qRT-PCR expression (Cyclin-G1 (CCNG1) transcript) ([1]; dose Ds1, Day1, oral gavage): 0.88 and 0.67 and 0.613 and 0.695 and 0.464 and 0.951 and 0.536 and 0.646 and 0.629 and 0.7 (2×)
MUSCYCG1R_DB81_seg19-20 normalized qRT-PCR expression ([1]; dose Ds1, Day1, oral gavage): 0.938 and 0.555 and 0.115 and 0.859 and 0.124 and 0.888 and 0.267 and 0.157 and 0.47 and 0.126 and 0.51
W41270_DB81_seg11 normalized qRT-PCR expression (tumor necrosis factor receptor superfamily, member 12a transcript) ([1]; dose Ds1, Day1, oral gavage): 0.481 and 0.662 and 0.473 and 0.76 and 0.474 and 0.876 and 0.959 and 0.518 and 0.823 and 3.38 and 0.623
W64472_DB81_seg2 normalized qRT-PCR expression (Interferon stimulated exonuclease 20 (ISG20) transcript) ([1]; dose Ds1, Day1, oral gavage): 1.863 and 0.632 and 1.305
W83813_DB81_seg27 normalized qRT-PCR expression ([1]; dose Ds1, Day1, oral gavage): 0.305 and 0.666 and 0.84
AI045075_DB71_seg6 normalized qRT-PCR expression (Interferon stimulated exonuclease 20 (ISG20) transcript) ([1]; dose Ds1, Day5, oral gavage): 1.016 and 1.11
H31883_DB71_seg13 normalized qRT-PCR expression (Cyclin-G1 (CCNG1) transcript) ([1]; dose Ds1, Day5, oral gavage): 1.884 and 1.539 and 1.163 and 1.329 and 1.66 and 1.079 and 0.936 and 0.978 and 1.439 and 1.149 and 2.147
MUSCYCG1R_DB81_seg19-20 normalized qRT-PCR expression ([1]; dose Ds1, Day5, oral gavage): 0.107 and 0.113 and 1.399 and 1.006 and 0.148 and 0.127 and 0.736 and 1.386 and 1.293 and 0.172 and 0.179
W41270_DB81_seg11 normalized qRT-PCR expression (tumor necrosis factor receptor superfamily, member 12a transcript) ([1]; dose Ds1, Day5, oral gavage): 0.233 and 0.493 and 0.626 and 1.149 and 0.321 and 0.477 and 0.83 and 1.524 and 1.111 and 0.397 and 0.337
W64472_DB81_seg2 normalized qRT-PCR expression (Interferon stimulated exonuclease 20 (ISG20) transcript) ([1]; dose Ds1, Day5, oral gavage): 0.929 and 0.996
W83813_DB81_seg27 normalized qRT-PCR expression ([1]; dose Ds1, Day5, oral gavage): 0.248 and 0.203
AI045075_DB71_seg6 normalized qRT-PCR expression (Interferon stimulated exonuclease 20 (ISG20) transcript) ([1]; dose Ds2, Day1, oral gavage): 1.43
H31883_DB71_seg13 normalized qRT-PCR expression (Cyclin-G1 (CCNG1) transcript) ([1]; dose Ds2, Day1, oral gavage): 0.832 and 0.773 and 0.635 and 0.722 and 0.618 and 0.999 and 0.602 and 0.522 and 1.006 and 1.079 and 0.84 and 0.762
MUSCYCG1R_DB81_seg19-20 normalized qRT-PCR expression ([1]; dose Ds2, Day1, oral gavage): 0.211 and 0.531 and 0.505 and 0.585 and 0.475 and 0.661 and 0.197 and 0.458 and 0.167 and 0.192 and 0.14 and 0.111
W41270_DB81_seg11 normalized qRT-PCR expression (tumor necrosis factor receptor superfamily, member 12a transcript) ([1]; dose Ds2, Day1, oral gavage): 1.747 and 1.016 and 0.424 and 0.589 and 0.545 and 0.528 and 0.384 and 0.577 and 1.729 and 1.125 and 0.594 and 0.92
W64472_DB81_seg2 normalized qRT-PCR expression (Interferon stimulated exonuclease 20 (ISG20) transcript) ([1]; dose Ds2, Day1, oral gavage): 0.804
W83813_DB81_seg27 normalized qRT-PCR expression ([1]; dose Ds2, Day1, oral gavage): 0.201
AI045075_DB71_seg6 normalized qRT-PCR expression (Interferon stimulated exonuclease 20 (ISG20) transcript) ([1]; dose Ds2, Day5, oral gavage): 0.609 and 1.842 and 0.637
H31883_DB71_seg13 normalized qRT-PCR expression (Cyclin-G1 (CCNG1) transcript) ([1]; dose Ds2, Day5, oral gavage): 1.386 and 0.676 and 1.01 and 1.128 and 1.161 and 1.146 and 1.057 and 0.942 and 1.256
MUSCYCG1R_DB81_seg19-20 normalized qRT-PCR expression ([1]; dose Ds2, Day5, oral gavage): 0.345 and 0.169 and 0.513 and 0.148 and 0.185 and 0.997 and 0.746 and 0.686 and 0.655
W41270_DB81_seg11 normalized qRT-PCR expression (tumor necrosis factor receptor superfamily, member 12a transcript) ([1]; dose Ds2, Day5, oral gavage): 1.186 and 0.308 and 0.497 and 0.711 and 1.237 and 0.857 and 0.788 and 0.457 and 0.668
W64472_DB81_seg2 normalized qRT-PCR expression (Interferon stimulated exonuclease 20 (ISG20) transcript) ([1]; dose Ds2, Day5, oral gavage): 0.731 and 1.178 and 0.485
W83813_DB81_seg27 normalized qRT-PCR expression ([1]; dose Ds2, Day5, oral gavage): 0.601 and 0.555 and 0.354
Average 'Toxic' (%) (rat kidney samples; Ds1 Day1 Female): 20%
Average 'Toxic' (%) (rat kidney samples; Ds1 Day1 Male): 25%
Average 'Toxic' (%) (rat kidney samples; Ds1 Day5 Female): 30%
Average 'Toxic' (%) (rat kidney samples; Ds1 Day5 Male): 83%
Average 'Toxic' (%) (rat kidney samples; Ds2 Day1 Female): 58.5%
Average 'Toxic' (%) (rat kidney samples; Ds2 Day1 Male): 0%
Average 'Toxic' (%) (rat kidney samples; Ds2 Day5 Female): 50%
Average 'Toxic' (%) (rat kidney samples; Ds2 Day5 Male): 30%
Toxicity conclusion from classifier calls (rat kidney samples; signatures of Tables 26 and 27, 30% bound): nephrotoxic agents
